Test system: E2-induced (ER target) genes in MCF7
Test: Gene expression analysis by RNA-sequencing in MCF7 with E2 stimulation
Assay type: cell-based, human
Details: MCF7; 1 nM E2 ± 1 μM compound, 24 h
Protocol: MCF7 were cultured in hormone deprivation media (with 10% charcoal-stripped FBS) for at least 3 days before assay. Trypsinized cells were seeded in a 12-well plate, stimulated with 1 nM β-estradiol (E2), and treated with/without 1 μM compounds for 24 h. Total RNA was extracted using the TRIzol reagent according to the manufacturer’s protocol. RNA purity and quantification were evaluated using the NanoDrop 2000 spectrophotometer (Thermo Scientific, USA). RNA integrity was assessed using the Agilent 2100 Bioanalyzer (Agilent Technologies, Santa Clara, CA, USA). Then the libraries were constructed using TruSeq Stranded mRNA LT Sample Prep Kit (Illumina, San Diego, CA, USA) according to the manufacturer’s instructions. The transcriptome sequencing and analysis were conducted by OE Biotech Co., Ltd. (Shanghai, China). The libraries were sequenced on an Illumina HiSeq X Ten platform and 150 bp paired-end reads were generated. […] Raw data (raw reads) of FASTq format were firstly processed using Trimmomatic and the low-quality reads were removed to obtain the clean reads. […] The clean reads were mapped to the human genome (GRCh38) using HISAT2 [27]. FPKM [28] of each gene was calculated using Cufflinks, and the read counts of each gene were obtained by HTSeqcount. Differential expression analysis was performed using the DESeq (2012) R package.
MCF7 with hormone-deprived pre-treatment were administrated ER ligands or not present with 1 nM E2 stimulation for 24 h incubation in a 12-well plate. Total mRNA was isolated from treated cells and sequenced on an Illumina HiSeq X Ten platform. FPKM of each gene was calculated using Cufflinks and Differential expression genes analysis by using the DESeq (2012) R package. […] T47D EFM-19 and HCC1500 cells were grown in RPMI media supplemented with 10% charcoal-stripped FBS for 14 days and then treated with ER antagonist (1 μM) or DMSO in the presence E2 (1nM) stimulation for 24 h before RNA isolation and gene expression analysis as described in methods. […] The uteruses were harvested 24 h after the final doses and stained by toluidine blue. Endometrial height was assessed from the basement membrane to the luminal border (scale bar in green lines: 200 μm), Arrows indicate the uterine epithelium (e).

CC/C(=C(\c1ccc(O)cc1)c1ccc(OCCN(C)C)cc1)c1ccccc1 [4-OH-tamoxifen]
KIF18B expression: 3.84 FPKM
KIFC1 expression: 15.12 FPKM
KLK11 expression: 4.66 FPKM
KNL1 expression: 4.05 FPKM
KNTC1 expression: 6.86 FPKM
LHX2 expression: 1.62 FPKM
LIG1 expression: 23.58 FPKM
LMNB1 expression: 53.86 FPKM
MAD2L1 expression: 7.76 FPKM
MCM2 expression: 31.78 FPKM
MCM3 expression: 34.54 FPKM
MCM4 expression: 49.01 FPKM
MCM5 expression: 13.27 FPKM
MCM6 expression: 24.55 FPKM
MCM7 expression: 84.30 FPKM
MCM10 expression: 3.64 FPKM
MELK expression: 11.34 FPKM
MKI67 expression: 21.80 FPKM
MYB expression: 5.81 FPKM
MYBL1 expression: 1.32 FPKM
MYBL2 expression: 46.03 FPKM
NCAPG2 expression: 19.25 FPKM
NCAPG expression: 7.03 FPKM
NPY1R expression: 8.44 FPKM
ORC1 expression: 3.13 FPKM
ORC6 expression: 7.62 FPKM
PAQR4 expression: 12.98 FPKM
PBK expression: 16.47 FPKM
PCLAF expression: 33.01 FPKM
PCNA expression: 59.31 FPKM
PDZK1 expression: 3.59 FPKM
PGR expression: 1.93 FPKM
PKIB expression: 26.05 FPKM
PKMYT1 expression: 12.25 FPKM
POLA1 expression: 3.09 FPKM
POLA2 expression: 5.57 FPKM
POLD1 expression: 11.86 FPKM
POLE2 expression: 2.61 FPKM
POLE expression: 12.83 FPKM
POLQ expression: 2.74 FPKM
PRIM1 expression: 10.94 FPKM
PRSS23 expression: 68.31 FPKM
RAB31 expression: 11.89 FPKM
RAD51AP1 expression: 5.44 FPKM
RAD51 expression: 4.02 FPKM
RAD54L expression: 4.39 FPKM
RAMP3 expression: 3.44 FPKM
RAPGEFL1 expression: 6.63 FPKM
RBL1 expression: 2.35 FPKM
RECQL4 expression: 13.74 FPKM
RERG expression: 3.48 FPKM
RET expression: 4.49 FPKM
RFC2 expression: 18.64 FPKM
RFC3 expression: 4.62 FPKM
RFC4 expression: 14.31 FPKM
RNASEH2A expression: 30.81 FPKM
RRM1 expression: 20.41 FPKM
RRM2 expression: 33.29 FPKM
RUBCNL expression: 1.01 FPKM
SDK2 expression: 0.95 FPKM
SFXN2 expression: 8.23 FPKM
SHCBP1 expression: 3.43 FPKM
SKA3 expression: 5.48 FPKM
SLC6A14 expression: 24.37 FPKM
SMC2 expression: 7.20 FPKM
SPC24 expression: 7.06 FPKM
SPC25 expression: 7.65 FPKM
STC2 expression: 84.89 FPKM
TACC3 expression: 21.35 FPKM
TCF19 expression: 8.96 FPKM
TCOF1 expression: 10.86 FPKM
TGM2 expression: 3.69 FPKM
TICRR expression: 4.37 FPKM
TK1 expression: 57.95 FPKM
TMEM26 expression: 2.14 FPKM
TMEM164 expression: 10.65 FPKM
TONSL expression: 9.87 FPKM
TOP2A expression: 30.91 FPKM
TP73 expression: 1.32 FPKM
TRIP13 expression: 8.37 FPKM
TUBA1B expression: 555.45 FPKM
TUBB expression: 291.22 FPKM
TYMS expression: 31.45 FPKM
UBE2C expression: 31.96 FPKM
UBE2T expression: 41.94 FPKM
UHRF1 expression: 9.20 FPKM
UNG expression: 32.49 FPKM
WDHD1 expression: 4.95 FPKM
WDR62 expression: 5.88 FPKM
WDR76 expression: 1.87 FPKM
XRCC2 expression: 3.37 FPKM
XRCC3 expression: 8.89 FPKM
ZGRF1 expression: 1.82 FPKM
ZNF367 expression: 5.84 FPKM

— PMC10426190 (Breast Cancer Research : BCR, 2023)
